# Measurements published in patent US4680389A, “Temperature stable crystalline di(1-methyl-2-pyrralidinone) and di(N-formylpyrrolidine) adducts of cephalosporin derivatives” (priority 1986, dated 1987).
# Experiments:
# [1] = system: Rat; assay: Toxicity data (LD50) in rat; type: in vivo; conditions: route not stated
# Protocol: (§1) Toxicity data (LD50) was determined for the following compounds which are utilized in the instant invention or prepared according to the instant invention.
# [2] = Toxicity data (LD50) in rat; type: in vivo; conditions: in vivo, route not stated
# Protocol: as §1
# [3] = Stabilities at elevated temperatures (percent potency loss by HPLC, dry containers); type: physicochemical
# Protocol: Elevated temperature stabilities were determined by storing the preparations in dry containers (1 dram screw cap vials) at temperatures and for time periods as denoted below. Potency losses or gains were determined by HPLC. […] Each compound form tested was prepared in accordance with the example which is designated.
# [4] = HPLC stability of Example 1 di(1-methyl-2-pyrrolidinone) adduct at 70° C.; type: physicochemical
# Protocol: 1.0 g of the sulfuric acid addition salt of the zwitterion is vigorously slurried in 10 ml of 1-methyl-2-pyrrolidinone (NMP-2) at 25° C.-45° C. The crystalline mass is mixed with 0.49 ml (2.02 molar equivalents) of triethylamine (TEA) over a period of 0.5 to 1.5 hours. The mixture is seeded with 1-methyl-2-pyrrolidinone adduct and vigorously stirred for 6 to 24 hours. The crystals are then separated by vacuum filtration, washed with two 3 ml portions of 1-methyl-2-pyrrolidinone, two 5 ml portions of ether and vacuum dried at 45° to 55° C. for 2 hours.
# [5] = Stability in aqueous solution; type: physicochemical; conditions: 250 mg/ml aqueous solution, ambient pH 4 to 5, at least six hours at 25° C.; 360 min
# Description: These crystalline adducts display acceptable stability when they are placed in solution.
# [6] = elevated temperatures (e.g. 45° C. and above), one week, dry powder; 10080 min; cited from earlier work
# [7] = system: various organisms; conditions: cited from earlier work
structure (smiles),measurement,setting,value
"CN1CCCC1=O [1-Methyl-2-pyrrolidinone, 1-methyl-2-pyrrolidinone]",Rat LD50,[1],< 2500 mg/kg
same,LD50,[2],> 2000 mg/kg
"CO/N=C(\C(=O)NC1C(=O)N2C(C(=O)[O-])=C(C[N+]3(C)CCCC3)CSC12)c1csc(N)n1 (centres unmarked) [Zwitterion (Amorphous), 7-[(Z)-2-methoxyimino-2-(2-aminothiazol-4-yl)acetamido]-3-[(1-methyl-1-pyrrolidinium)methyl]-3-cephem-4-carboxylate, reference compound]",PERCENT LOSS,"[3]; 45° C., 1 week, 10080 min",34.1%
same,PERCENT LOSS,"[3]; 45° C., 4 weeks, 40320 min",71%
same,PERCENT LOSS,"[3]; 56° C., 1 week, 10080 min",49.6%
same,PERCENT LOSS,"[3]; 70° C., 1 day, 1440 min",34.5%
same,PERCENT LOSS,"[3]; 70° C., 2 days, 2880 min",46.2%
same,PERCENT LOSS,"[3]; 70° C., 3 days, 4320 min",55.2%
same,degraded at 24 h,"[3]; dry solid, 100° C., 1 day",100%
"CN1CCCC1=O.CN1CCCC1=O.CO/N=C(\C(=O)NC1C(=O)N2C(C(=O)[O-])=C(C[N+]3(C)CCCC3)CSC12)c1csc(N)n1 (centres unmarked) [Di(1-methyl-2-pyrrolidinone) adduct, di(1-methyl-2-pyrrolidinone) adduct of 7-[(Z)-2-methoxyimino-2-(2-aminothiazol-4-yl)acetamido-]3-[(1-methyl-1-pyrrolidinium)methyl]-3-cephem-4-carboxylate]",Rat LD50,[1],663 mg/kg
same,HPLC Stability % Loss,[4]; 1 Day,0-2.3%
same,HPLC Stability % Loss,[4]; 3 Days,5-6.5%
same,PERCENT LOSS,"[3]; 37° C., 3 months, 129600 min",1.2%
same,PERCENT LOSS,"[3]; 45° C., 4 weeks, 40320 min",1.6%
same,PERCENT LOSS,"[3]; 45° C., 6 weeks, 60480 min",3.0%
same,PERCENT LOSS,"[3]; 45° C., 8 weeks, 80640 min",0-3%
same,PERCENT LOSS,"[3]; 56° C., 1 week, 10080 min",2.1%
same,PERCENT LOSS,"[3]; 56° C., 2 weeks, 20160 min",3.4%
same,PERCENT LOSS,"[3]; 56° C., 4 weeks, 40320 min",4.2%
same,PERCENT LOSS,"[3]; 56° C., 6 weeks, 60480 min",7.0%
same,PERCENT LOSS,"[3]; 56° C., 8 weeks, 80640 min",0.9%
same,PERCENT LOSS,"[3]; 70° C., 1 day",0%
same,PERCENT LOSS,"[3]; 70° C., 2 days",2.1%
same,PERCENT LOSS,"[3]; 70° C., 3 days",2.1%
same,PERCENT LOSS,"[3]; 70° C., 5 days",2.1%
same,PERCENT LOSS,"[3]; 100° C., 1 day",13-16%
same,potency loss in aqueous solution,[5],less than 10%
"CO/N=C(\C(=O)NC1C(=O)N2C(C(=O)[O-])=C(C[N+]3(C)CCCC3)CSC12)c1csc(N)n1 (centres unmarked) [Zwitterion (Crystalline), 7-[(Z)-2-methoxyimino-2-(2-aminothiazol-4-yl)acetamido]-3-[(1-methyl-1-pyrrolidinium)methyl]-3-cephem-4-carboxylate]",temperature stability of crystalline vs amorphous form,[3],more temperature stable than the amorphous form
same,PERCENT LOSS,"[3]; 37° C., 1 month, 43200 min",20.0%
same,PERCENT LOSS,"[3]; 45° C., 1 week, 10080 min",14.2%
same,PERCENT LOSS,"[3]; 56° C., 1 week, 10080 min",25.6%
same,PERCENT LOSS,"[3]; 56° C., 2 weeks, 20160 min",30.0%
same,PERCENT LOSS,"[3]; 70° C., 2 days, 2880 min",13.5%
same,PERCENT LOSS,"[3]; 70° C., 3 days, 4320 min",20.5%
same,degraded at 336 h,"[3]; dry solid, 45° C., 2 weeks",23%
"O=CN1CCCC1 [N--Formyl pyrrolidine, N-formyl pyrrolidine]",Rat LD50,[1],< 1000 mg/kg
same,LD50,[2],> 500 mg/kg
CO/N=C(\C(=O)NC1C(=O)N2C(C(=O)[O-])=C(C[N+]3(C)CCCC3)CSC12)c1csc(N)n1 (centres unmarked),Rat LD50,[1]; listed as Di(N--formyl pyrrolidine) adduct,495 mg/kg
same,PERCENT LOSS,"[3]; 37° C., 1 month, 43200 min, listed as Di(NFP) Adduct",0%
same,PERCENT LOSS,"[3]; 45° C., 1 week, 10080 min, listed as Di(NFP) Adduct",0-3%
same,PERCENT LOSS,"[3]; 45° C., 4 weeks, 40320 min, listed as Di(NFP) Adduct",3.5-5.9%
same,PERCENT LOSS,"[3]; 56° C., 1 week, 10080 min, listed as Di(NFP) Adduct",7.1%
same,PERCENT LOSS,"[3]; 56° C., 2 weeks, 20160 min, listed as Di(NFP) Adduct",9.3%
same,PERCENT LOSS,"[3]; 70° C., 1 day, listed as Di(NFP) Adduct, 1440 min",1.5%
same,PERCENT LOSS,"[3]; 70° C., 3 days, listed as Di(NFP) Adduct, 4320 min",0-4.4%
same,degraded at 672 h,"[3]; dry solid, 56° C., 4 weeks",18.1%
"CO/N=C(\C(=O)NC1C(=O)N2C(C(=O)[O-])=C(C[N+]3(C)CCCC3)CSC12)c1csc(N)n1 (centres unmarked) [Zwitterion, 7-[(Z)-2-methoxyimino-2-(2-aminothiazol-4-yl)acetamido]-3-[(1-methyl-1-pyrrolidinium)methyl]-3-cephem-4-carboxylate]",LD50,[2],665 mg/kg
same,loss of activity on storage,[6],≥ 30%
same,utility against various organisms,"[7]; data in U.S. Pat. No. 4,406,899",broad spectrum utility against various organisms
same,spectrum of activity compared with ceftazidime and cefotaxime,[7]; zwitterion form vs ceftazidime and cefotaxime,broader spectrum activity than ceftazidime and cefotaxime
